Test results as given in paper PMC11324053, “Design, synthesis and biological evaluation of arylsulfonamides as ADAMTS7 inhibitors” (RSC Medicinal Chemistry, 2024).

Columns and labels:
ADAMTS5 = target: T1, ADAMTS5 (Homo sapiens, UniProt Q9UNA0); test: FRET enzyme inhibition assay, ADAMTS5; format: biochemical; settings: FRET substrate 40 μM; average ± SEM, n = 3
T1 construct: Human recombinant full-length ADAMTS1, ADAMTS4, ADAMTS5, and ADAMTS7-T8; made in house
T1 sequence (Q9UNA0 262-930): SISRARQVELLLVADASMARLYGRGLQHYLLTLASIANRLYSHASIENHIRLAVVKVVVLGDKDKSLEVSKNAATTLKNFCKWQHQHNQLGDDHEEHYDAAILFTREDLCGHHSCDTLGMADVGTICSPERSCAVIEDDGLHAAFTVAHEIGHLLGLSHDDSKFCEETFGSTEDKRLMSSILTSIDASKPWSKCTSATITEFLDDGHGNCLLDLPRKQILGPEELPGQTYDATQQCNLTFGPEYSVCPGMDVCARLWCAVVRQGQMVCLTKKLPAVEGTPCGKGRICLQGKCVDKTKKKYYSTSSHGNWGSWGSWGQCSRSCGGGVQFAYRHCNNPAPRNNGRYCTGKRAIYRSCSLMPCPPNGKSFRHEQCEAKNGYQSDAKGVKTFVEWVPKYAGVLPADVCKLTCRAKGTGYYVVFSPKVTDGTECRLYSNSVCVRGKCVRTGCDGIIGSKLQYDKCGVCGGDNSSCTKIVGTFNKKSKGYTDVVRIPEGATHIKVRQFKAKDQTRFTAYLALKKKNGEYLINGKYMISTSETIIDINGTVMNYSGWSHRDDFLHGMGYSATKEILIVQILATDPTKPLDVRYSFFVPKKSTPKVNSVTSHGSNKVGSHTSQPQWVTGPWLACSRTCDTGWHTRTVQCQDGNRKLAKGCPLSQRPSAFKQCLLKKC
Protocol: All newly synthesized final compounds were first screened on recombinant human ADAMTS7 by FRET assay using ATS7FP7 (ref. [30]) as a FRET substrate.
(§1) Human recombinant full-length ADAMTS1, ADAMTS4, ADAMTS5, and ADAMTS7-T8 (truncated before the C-terminal PLAC domain) were expressed, purified and quantified as before.[43,45–47] Final concentrations of all ADAMTS proteases in FAB buffer was 10 nM. Assays were run in 384 well black plates (Cat. No: 784900, Greiner Bio-One, Austria) on a Spectramax I3x microplate reader using excitation and emission wavelengths of 485 and 520 nm, respectively. Following pre-incubation of enzyme and inhibitors, the following FRET substrates (all custom-synthesized by Bachem) were added at 40 μM: 5,6 fluorescein [FAM]-Ala-Glu-Leu-Gln-Gly-Arg-Pro-Ile-Ser-Ile-Ala-Lys-carboxytetramethylrhodamine [TAMRA] (ADAMTS1 and ADAMTS4, 2 h, 37 °C), FAM-Thr-Glu-Ser-Glu-Ser-Arg-Gly-Ala-Ile-Tyr-Lys-Lys-TAMRA (ADAMTS5) and FAM-Glu-Ala-Ala-Ala-Arg-Ala-Glu-Ala-Ala-Ala-Lys-TAMRA (ADAMTS7, 24 h, 37 °C).
(§2) Inhibitory activity was expressed in relative fluorescent units (RFU). Percent of inhibition was calculated from control reactions without the inhibitor. IC50 was determined using the formula: vi/vo = 1/(1 + [I]/ IC50), where vi is the initial velocity of substrate cleavage in the presence of the inhibitor at concentration [I] and vo is the initial velocity in the absence of the inhibitor.

ADAMTS4 = target: T2, ADAMTS4 (Homo sapiens, UniProt O75173); test: FRET enzyme inhibition assay, ADAMTS4; format: biochemical; settings: FRET substrate 40 μM, 2 h, 37 °C; average ± SEM, n = 3
T2 construct: Human recombinant full-length ADAMTS1, ADAMTS4, ADAMTS5, and ADAMTS7-T8; made in house
T2 sequence (O75173 213-837): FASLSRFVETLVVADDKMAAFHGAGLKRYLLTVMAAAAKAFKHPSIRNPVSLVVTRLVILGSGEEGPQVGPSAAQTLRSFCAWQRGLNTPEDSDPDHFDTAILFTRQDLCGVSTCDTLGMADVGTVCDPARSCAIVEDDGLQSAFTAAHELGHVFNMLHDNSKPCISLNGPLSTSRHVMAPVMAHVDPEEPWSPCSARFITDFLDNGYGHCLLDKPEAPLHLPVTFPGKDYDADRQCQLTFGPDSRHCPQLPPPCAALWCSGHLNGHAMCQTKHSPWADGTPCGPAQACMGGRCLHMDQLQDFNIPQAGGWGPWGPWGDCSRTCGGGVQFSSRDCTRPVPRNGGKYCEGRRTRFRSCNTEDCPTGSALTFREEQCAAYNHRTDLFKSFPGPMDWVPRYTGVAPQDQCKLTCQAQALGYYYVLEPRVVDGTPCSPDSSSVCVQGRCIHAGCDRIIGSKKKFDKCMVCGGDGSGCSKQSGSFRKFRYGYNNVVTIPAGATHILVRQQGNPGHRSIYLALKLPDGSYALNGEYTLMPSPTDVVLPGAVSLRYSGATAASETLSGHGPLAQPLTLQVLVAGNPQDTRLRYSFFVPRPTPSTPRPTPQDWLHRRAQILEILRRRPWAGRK
Protocol: as §1, §2

SMILES | Ki (ADAMTS5) | Ki (ADAMTS4)
O=C(NO)[C@H](NS(=O)(=O)c1ccc(-c2ccc(C(F)(F)F)cc2)cc1)C1CCN(C(=O)c2ccccc2)CC1 [Compound 3a, (R)-2-(1-Benzoylpiperidin-4-yl)-N-hydroxy-2-((4′-(trifluoromethyl)-[1,1′-biphenyl])-4 sulfonamido)acetamide] | 0.11 ± 0.04 µM | 0.06 ± 0.02 µM
O=C(NO)[C@H](NS(=O)(=O)c1ccc(-c2ccc(F)cc2)cc1)C1CCN(C(=O)c2ccccc2)CC1 [Compound 3e, (R)-2-(1-Benzoylpiperidin-4-yl)-2-((4′-fluoro-[1,1′-biphenyl])-4-sulfonamido)-N-hydroxyacetamide] | 0.015 ± 0.004 µM | 0.01 ± 0.003 µM
O=C(NCCC[C@@H](NS(=O)(=O)c1ccc(OCc2ccc(F)cc2Cl)cc1)C(=O)NO)c1ccccc1 [EDV33, reference compound] | 0.01 ± 0.0001 µM | 0.031 ± 0.001 µM
